Source: ChEMBL document CHEMBL1201862, “PubChem BioAssay data set” (2004)
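Step 1: Grow cells in 96-well plates. Step 2: Expose to compound for 48 hours at 5 concentrations. Step 3: Interpolate endpoints linearly; if unreached, use highest concentration. GI50 = concentration required for 50% inhibition of growth.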 The source made the active and inactive calls. Cut-off read from the data, not from the text of the source: active = GI50 up to about 1.1 µM and inactive = higher.

Key:
Test in all cases: growth of human tumour cells (NCI), 48 h
[1] = test system: HCT-116
[2] = test system: HT-29
[3] = test system: OVCAR-8
[4] = test system: RPMI-8226
[5] = test system: SK-MEL-5
[6] = test system: COLO 205
[7] = test system: MDA-MB-231
[8] = test system: PC-3
[9] = test system: SR
[10] = test system: U-251
[11] = test system: MDA-N
[12] = test system: SF-268
[13] = test system: ACHN
[14] = test system: HOP-62
[15] = test system: SNB-19
[16] = test system: RXF 393
[17] = test system: NCI-H522
[18] = test system: SF-539
[19] = test system: HCT-15
[20] = test system: MCF7
[21] = test system: BT-549
[22] = test system: HL-60
[23] = test system: Hs-578T
[24] = test system: T47D
[25] = test system: TK-10
[26] = test system: OVCAR-3
[27] = test system: DU-145
[28] = test system: KM12
[29] = test system: OVCAR-4
[30] = test system: UO-31
[31] = test system: A549
[32] = test system: SNB-75
[33] = test system: MOLT-4
[34] = test system: NCI-H460
[35] = test system: 786-0
[36] = test system: IGROV-1
[37] = test system: SK-MEL-28
[38] = test system: NCI-H226
[39] = test system: A498
[40] = test system: SN12C
[41] = test system: SW-620
[42] = test system: OVCAR-5
[43] = test system: LOX IMVI
[44] = test system: NCI/ADR-RES
[45] = test system: UACC-62
[46] = test system: Malme-3M
[47] = test system: SF-295
[48] = test system: M14
[49] = test system: UACC-257
[50] = test system: EKVX
[51] = test system: SK-MEL-2
[52] = test system: NCI-H23
[53] = test system: HCC 2998
[54] = test system: K562
[55] = test system: CCRF-CEM
[56] = test system: SK-OV-3
[57] = test system: MDA-MB-435
[58] = test system: HOP-92
[59] = test system: CAKI-1

Measured: GI50

O=C(O)c1ccc2c(c1)CC1(C2)Cc2cc3c(cc2C1=O)CCC3 (configuration not stated)
inactive: [1] > 100 µM | [2] > 100 µM | [3] 97.9 µM | [4] > 100 µM | [5] 93.8 µM | [6] > 100 µM | [7] > 100 µM | [8] > 100 µM | [9] > 100 µM | [10] > 100 µM | [11] > 100 µM | [12] 46.8 µM | [13] > 100 µM | [14] > 100 µM | [15] > 100 µM | [16] 73.5 µM | [17] > 100 µM | [18] > 100 µM | [20] > 100 µM | [21] > 100 µM | [22] > 100 µM | [23] > 100 µM | [24] 34.4 µM | [25] > 100 µM | [26] > 100 µM | [27] > 100 µM | [28] > 100 µM | [29] > 100 µM | [30] 85.1 µM | [31] 69 µM | [32] 56 µM | [33] > 100 µM | [34] > 100 µM | [35] > 100 µM | [36] > 100 µM | [37] > 100 µM | [38] > 100 µM | [39] 19.5 µM | [40] > 100 µM | [41] > 100 µM | [42] > 100 µM | [43] > 100 µM | [44] > 100 µM | [45] > 100 µM | [46] > 100 µM | [47] 93.3 µM | [48] > 100 µM | [49] > 100 µM | [50] > 100 µM | [51] > 100 µM | [52] > 100 µM | [53] > 100 µM | [54] > 100 µM | [55] > 100 µM | [56] > 100 µM | [57] > 100 µM | [58] 69 µM
79.6 µM: [19]

C=CCn1cnc2c(O)nc(Nc3ccccc3)nc21
> 100 µM: [19]
inactive: [1] > 100 µM | [2] > 100 µM | [3] > 100 µM | [4] > 100 µM | [5] > 100 µM | [6] > 100 µM | [7] > 100 µM | [8] > 100 µM | [9] > 100 µM | [10] > 100 µM | [11] > 100 µM | [12] > 100 µM | [13] > 100 µM | [14] > 100 µM | [15] > 100 µM | [17] > 100 µM | [18] > 100 µM | [20] > 100 µM | [21] > 100 µM | [22] > 100 µM | [23] > 100 µM | [24] > 100 µM | [25] > 100 µM | [26] > 100 µM | [27] > 100 µM | [28] > 100 µM | [29] > 100 µM | [30] 50.5 µM | [31] > 100 µM | [32] > 100 µM | [33] 12.8 µM | [34] > 100 µM | [35] > 100 µM | [36] > 100 µM | [37] > 100 µM | [38] > 100 µM | [39] > 100 µM | [40] > 100 µM | [41] > 100 µM | [42] > 100 µM | [43] > 100 µM | [44] > 100 µM | [45] > 100 µM | [46] > 100 µM | [47] > 100 µM | [48] > 100 µM | [49] > 100 µM | [50] > 100 µM | [59] > 100 µM | [51] > 100 µM | [53] > 100 µM | [55] > 100 µM | [56] > 100 µM | [57] > 100 µM | [58] > 100 µM

CC(C)(C)OC(=O)NCCC1CN(C(=O)c2ccccc2)c2ccccc21 (configuration not stated)
inactive: [1] 17.8 µM | [2] 23.2 µM | [3] 25.6 µM | [4] 19.7 µM | [5] 16.4 µM | [6] 19.7 µM | [7] 40.1 µM | [8] 31.8 µM | [9] 7.82 µM | [10] 40 µM | [11] 21.6 µM | [12] 41.3 µM | [13] 32.7 µM | [14] 25.8 µM | [15] 32 µM | [16] 28 µM | [17] 22.6 µM | [20] 28.2 µM | [21] 25.1 µM | [23] 43.5 µM | [24] 25.2 µM | [25] 56.2 µM | [26] 15.9 µM | [27] 45.8 µM | [28] 31.5 µM | [29] 36.9 µM | [30] 23.7 µM | [31] 25.3 µM | [32] 28.7 µM | [33] 22.1 µM | [34] 22.9 µM | [35] 35.3 µM | [36] 29.5 µM | [37] 32.7 µM | [39] > 100 µM | [41] 34.2 µM | [42] 32.7 µM | [44] 22.1 µM | [45] 19 µM | [46] 28.9 µM | [47] 29.4 µM | [48] 16.7 µM | [49] 26.9 µM | [50] 25.6 µM | [59] 36 µM | [51] 27.7 µM | [52] 26.3 µM | [53] 73.1 µM | [54] 27 µM | [56] > 100 µM | [57] 27.6 µM | [58] 26.5 µM
29.9 µM: [19]
